Results on 25 compounds are retold here after patent US8735414B2 (priority 2009, dated 2014).

Data set [1] deals with bicistronic HCV replicon (replicon RNA, GenBank Accession No. AJ242654). Nature of the data set: HCV Replicon Assay. The format is cell-based. Particulars: Hepatitis C virus, 72 h, read-out: Replicon IC50. Background: A replicon is a self-replicating genome or part of one, used to study replication in cells.

As usually defined, the melting point is the temperature of the solid-liquid transition. The IC50 is the midpoint of a concentration-inhibition curve.

Consider `Cc1c(F)cc2c(C#N)c(-c3ccc(S(=O)(=O)NC4(C(F)(F)F)CC4)cn3)n(C3CCCC3)c2c1F` [compound 654, 6-(3-cyano-1-cyclopentyl-5,7-difluoro-6-methyl-1H-indol-2-yl)-N-[1-(trifluoromethyl)cyclopropyl]pyridine-3-sulfonamide], for which the melting point lay in the range of 241 to 246 °C. Further, the IC50 in data set [1] is < 500 nM.
In the same order, the values of `Cc1cc2c(cc1F)c(C#N)c(-c1ccc(S(=O)(=O)NC(C)C)cn1)n2C1CCC1` [compound 655, 6-(3-cyano-1-cyclobutyl-5-fluoro-6-methyl-1H-indol-2-yl)-N-(propan-2-yl)pyridine-3-sulfonamide] are 222 to 226 °C and < 500 nM.
Consider `Cc1c(F)cc2c(C#N)c(-c3ncc(S(=O)(=O)NC(CF)CF)cn3)n(C3CCCC3)c2c1F` [compound 656, 2-(3-cyano-1-cyclopentyl-5,7-difluoro-6-methyl-1H-indol-2-yl)-N-(1,3-difluoropropan-2-yl)pyrimidine-5-sulfonamide], for which the melting point is 230 to 234 °C. Further, the IC50 in data set [1] was < 500 nM.
In the same order, the values of `C[C@H](NS(=O)(=O)c1ccc(-c2c(C#N)c3cc(F)c(OC(F)F)cc3n2-c2ccccn2)nc1)C(F)(F)F` [compound 657, 6-[3-cyano-6-(difluoromethoxy)-5-fluoro-1-(pyridine-2-yl)-1H-indol-2-yl]-N-[(2S)-1,1,1-trifluoropropan-2-yl]pyridine-3-sulfonamide] are 161 to 163 °C and < 500 nM.
In the same order, the values of `CC1(NS(=O)(=O)c2ccc(-c3c(C#N)c4cc(Cl)c(OC(F)F)cc4n3C3CCC3)nc2)CC1` [compound 658, 6-[5-chloro-3-cyano-1-cyclobutyl-6-(difluoromethoxy)-1H-indol-2-yl]-N-(1-methylcyclopropyl)pyridine-3-sulfonamide] are 218 to 226 °C and < 500 nM.
Take `N#Cc1c(-c2ncc(S(=O)(=O)NC(CF)CF)cn2)n(C2CCC2)c2cc(OC(F)F)c(Cl)cc12` [compound 659, 2-[5-chloro-3-cyano-1-cyclobutyl-6-(difluoromethoxy)-1H-indol-2-yl]-N-(1,3-difluoropropan-2-yl)pyrimidine-5-sulfonamide]: the melting point fell in the range of 228 to 232 °C. In addition, the IC50 in data set [1] is < 500 nM.
In the same order, the values of `Cc1cc2c(C#N)c(-c3ccc(S(=O)(=O)N[C@@H](C)C(F)(F)F)cn3)n(C3CCC3)c2cc1OC(F)F` [compound 660, 6-[3-cyano-1-cyclobutyl-6-(difluoromethoxy)-5-methyl-1H-indol-2-yl]-N-[(2S)-1,1,1-trifluoropropan-2-yl]pyridine-3-sulfonamide] are 168 to 170 °C and < 500 nM.
The like results for `C[C@H](NS(=O)(=O)c1ccc(-c2c(C#N)c3cc(F)c(C4CC4)cc3n2C2CCCC2)nc1)C(F)(F)F` [compound 661, 6-(3-cyano-1-cyclopentyl-6-cyclopropyl-5-fluoro-1H-indol-2-yl)-N-[(2S)-1,1,1-trifluoropropan-2-yl]pyridine-3-sulfonamide] were, in that order, 189 to 190 °C and < 500 nM.
In the same order, the values of `C[C@@H](NS(=O)(=O)c1ccc(-c2c(C#N)c3cc(F)c(C4CC4)cc3n2C2CCCC2)nc1)C(F)(F)F` [compound 662, 6-(3-cyano-1-cyclopentyl-6-cyclopropyl-5-fluoro-1H-indol-2-yl)-N-[(2R)-1,1,1-trifluoropropan-2-yl]pyridine-3-sulfonamide] are 180 to 181 °C and < 500 nM.
In the case of `CC(C)(NS(=O)(=O)c1ccc(-c2c(C#N)c3ccc(OC(F)F)cc3n2-c2ncccn2)nc1)C(F)(F)F` [compound 663, 6-[3-cyano-6-(difluoromethoxy)-1-(pyrimidin-2-yl)-1H-indol-2-yl]-N-(1,1,1-trifluoro-2-methylpropan-2-yl)pyridine-3-sulfonamide], the melting point is 179 to 180 °C. The IC50 in data set [1] lay within 500 to 2000 nM.
The like results for `N#Cc1c(-c2ccc(S(=O)(=O)NC3(C(F)(F)F)CC3)cn2)n(-c2ccc(F)cc2)c2cc(OC(F)F)ccc12` [compound 664, 6-[3-cyano-6-(difluoromethoxy)-1-(4-fluorophenyl)-1H-indol-2-yl]-N-[1-(trifluoromethyl)cyclopropyl]pyridine-3-sulfonamide] were, in that order, 195 to 198 °C and < 500 nM.
The like results for `Cc1c(F)cc2c(C#N)c(-c3ccc(S(=O)(=O)N[C@H](C)C(F)(F)F)cn3)n(C3CCC3)c2c1F` [compound 666, 6-(3-cyano-1-cyclobutyl-5,7-difluoro-6-methyl-1H-indol-2-yl)-N-[(2R)-1,1,1-trifluoropropan-2-yl]pyridine-3-sulfonamide] were, in that order, 185 to 190 °C and < 500 nM.
The like results for `Cc1c(F)cc2c(C#N)c(-c3ccc(S(=O)(=O)NC4(C(F)(F)F)CC4)cn3)n(C3CCC3)c2c1F` [compound 667, 6-(3-cyano-1-cyclobutyl-5,7-difluoro-6-methyl-1H-indol-2-yl)-N-[1-(trifluoromethyl)cyclopropyl]pyridine-3-sulfonamide] were, in that order, 235 to 241 °C and < 500 nM.
Take `COc1cc2c(C#N)c(-c3ccc(S(=O)(=O)N[C@@H](C)C(F)(F)F)cn3)n(C3CCCC3)c2cc1C` [compound 669, 6-(3-cyano-1-cyclopentyl-5-methoxy-6-methyl-1H-indol-2-yl)-N-[(2S)-1,1,1-trifluoropropan-2-yl]pyridine-3-sulfonamide]: the melting point was in the range of 211 to 211.5 °C. For the same compound, in data set [1], the IC50 is < 500 nM.
In the same order, the values of `CCc1cc2c(cc1F)c(C#N)c(-c1ccc(S(=O)(=O)NC(C)(C)C(F)(F)F)cn1)n2C1CCCC1` [compound 672, 6-(3-cyano-1-cyclopentyl-6-ethyl-5-fluoro-1H-indol-2-yl)-N-(1,1,1-trifluoro-2-methylpropan-2-yl)pyridine-3-sulfonamide] are 142 to 143 °C and < 500 nM.
The like results for `C[C@@H](NS(=O)(=O)c1ccc(-c2c(C#N)c3cc(F)ccc3n2-c2ncccn2)nc1)C(F)(F)F` [compound 673, 6-[3-cyano-5-fluoro-1-(pyrimidin-2-yl)-1H-indol-2-yl]-N-[(2R)-1,1,1-trifluoropropan-2-yl]pyridine-3-sulfonamide] were, in that order, 202 to 205 °C and < 500 nM.
In the same order, the values of `C[C@H](NS(=O)(=O)c1ccc(-c2c(C#N)c3cc(O)c(OC(F)F)cc3n2C2CCC2)nc1)C(F)(F)F` [compound 674, 6-[3-cyano-1-cyclobutyl-6-(difluoromethoxy)-5-hydroxy-1H-indol-2-yl]-N-[(2S)-1,1,1-trifluoropropan-2-yl]pyridine-3-sulfonamide] are 174 to 177 °C and < 500 nM.
On to `Cc1cc2c(cc1Br)c(C#N)c(-c1ccc(S(=O)(=O)N[C@@H](C)C(F)(F)F)cn1)n2C1CCCC1` [compound 675, 6-(5-bromo-3-cyano-1-cyclopentyl-6-methyl-1H-indol-2-yl)-N-[(2S)-1,1,1-trifluoropropan-2-yl]pyridine-3-sulfonamide], for which the melting point was 204 to 204.5 °C. In data set [1], the IC50 was < 500 nM.
In the same order, the values of `CC(C)(NS(=O)(=O)c1ccc(-c2c(C#N)c3cc(F)c(OC(F)F)cc3n2C2CCC2)nc1)C(F)(F)F` [compound 676, 6-[3-cyano-1-cyclobutyl-6-(difluoromethoxy)-5-fluoro-1H-indol-2-yl]-N-(1,1,1-trifluoro-2-methylpropan-2-yl)pyridine-3-sulfonamide] are 162 to 165 °C and < 500 nM.
The like results for `Cc1ccc2c(C#N)c(-c3ccc(S(=O)(=O)N[C@@H](C)C(F)(F)F)cn3)n(-c3ncccn3)c2c1` [compound 677, 6-[3-cyano-6-methyl-1-(pyrimidin-2-yl)-1H-indol-2-yl]-N-[(2S)-1,1,1-trifluoropropan-2-yl]pyridine-3-sulfonamide] were, in that order, 195 to 198 °C and < 500 nM.
In the same order, the values of `Cc1cc2c(cc1F)c(C#N)c(-c1ccc(S(=O)(=O)N[C@@H](C)C(F)(F)F)cn1)n2C1CCCCC1` [compound 678, 6-(3-cyano-1-cyclohexyl-5-fluoro-6-methyl-1H-indol-2-yl)-N-[(2S)-1,1,1-trifluoropropan-2-yl]pyridine-3-sulfonamide] are 224 to 229 °C and < 500 nM.
`Cc1cc2c(cc1F)c(C#N)c(-c1ccc(S(=O)(=O)N[C@H](C)C(F)(F)F)cn1)n2C1CCCCC1` [compound 680, 6-(3-cyano-1-cyclohexyl-5-fluoro-6-methyl-1H-indol-2-yl)-N-[(2R)-1,1,1-trifluoropropan-2-yl]pyridine-3-sulfonamide] had a melting point of 224 to 229 °C. In addition, the IC50 in data set [1] was < 500 nM.
Turning to `Cc1cc2c(cc1F)c(C#N)c(-c1ccc(S(=O)(=O)NC(C)(C)C(F)(F)F)cn1)n2C1CCCC1` [compound 681, 6-(3-cyano-1-cyclopentyl-5-fluoro-6-methyl-1H-indol-2-yl)-N-(1,1,1-trifluoro-2-methylpropan-2-yl)pyridine-3-sulfonamide], the melting point is 223 to 225 °C. For the same compound, in data set [1], the IC50 was < 500 nM.
In the same order, the values of `C[C@H](NS(=O)(=O)c1ccc(-c2c(C#N)c3cc(Br)c(O)cc3n2C2CCC2)nc1)C(F)(F)F` [compound 684, 6-(5-bromo-3-cyano-1-cyclobutyl-6-hydroxy-1H-indol-2-yl)-N-[(2S)-1,1,1-trifluoropropan-2-yl]pyridine-3-sulfonamide] are 223 to 224 °C and 500 to 2000 nM.
The like results for `Cc1ccc2c(C#N)c(-c3ccc(S(=O)(=O)NC(C)(C)C(F)(F)F)cn3)n(-c3ccccn3)c2c1` [compound 686, 6-[3-cyano-6-methyl-1-(pyridin-2-yl)-1H-indol-2-yl]-N-(1,1,1-trifluoro-2-methylpropan-2-yl)pyridine-3-sulfonamide] were, in that order, 208 to 209 °C and < 500 nM.
